Assay results taken from patent US20240252496A1, “SELECTIVE HYPOTHALAMUS PERMEABLE HDAC6 INHIBITORS FORTREATMENT OF LEPTIN-RESISTANT OBESITY” (The Children’s Medical Center Corporation, priority 2022, published 2024).

What was measured:
HDAC6 in AgRP neurons = experiment: DIO mice with HDAC6 deleted in AgRP neurons (HDAC6^Agrp-Δ); type: in vivo
Method: Design, validation, and stereotaxic injection of AAV viral vector carrying the guide RNAs targeting the mouse HDAC6 genomic locus. Three designed sgRNAs were concatenated and constructed into an AAV vector carrying a cre-enabled mCherry fluorescent marker.
Following the bilateral injection of AAV-sgHDAC6 into the arcuate nucleus of Agrp-ires-cre::LSL-Cas9-GFP (Agrp-Cre^+/−::Cas9^+/−) or control LSL-Cas9-GFP (Cas9^+/−) mice, immunostaining to detect the expression of mCherry and GFP was performed. AAV-sg-HDAC6 injected Agrp-Cre^+/−::Cas9^+/− (HDAC6^Agrp-Δ) and Cas9^+/− (HDAC6^WT) DIO mice (n=7 for each group) were fasted for 24 hours, and injected with ACY775 (10 mg/kg. i.p). Hourly total dark cycle food intake (g) (n=7 for each group) of these mice after ACY775 injection was measured. Body weight of AAV-sg-HDAC6 injected HDAC6^Agrp-Δ (n=11) and HDAC6^WT (n=6) mice were measured during 3 weeks of ACY775 (10 mg/kg/day, i.p.) treatment. Daily average food intake of HDAC6^Agro-Δ (n=11) and HDAC6^WT (n=6) mice was measured during 3 weeks of ACY775 (10 mg/kg/day, i.p.) treatment. 24-hour food intake average of HDAC Agrp- and HDAC6^WT mice during the 3 weeks of ACY775 treatment was assessed. Serum leptin level (ng/ml) of HDAC6^Agrp-Δ and HDAC6^WT mice after 2 weeks of ACY775 treatment (n=13 for HDAC6^WT and n=18 for HDAC6^Agrp-Δ) was measured. Lean mass (g); fat mass; and fat percentage (%) of HDAC Agrp- and HDAC6^WT DIO mice after 3 weeks of ACY775 treatment was measured by DEXA scan. The HDAC6 inhibitor responsive neurons in the dorsomedial hypothalamus (DMH) were assessed. Immunostaining and quantification of c-Fos expression was performed in the DMH of DIO mice following one-time ACY775 treatment (10 mg/kg, i.p.).

[1] = Brain/plasma ratio, brain and hypothalamus penetrance; type: in vivo; conditions: in words

SMILES: O=C(NO)c1cnc(NC2(c3cccc(F)c3)CCCCC2)nc1 [ACY775, 2-[[1-(3-fluorophenyl)cyclohexyl]amino]-N-hydroxy-5-pyrimidinecarboxamide]
- suppression of food intake after a single dose in HDAC6^Agrp-Δ DIO mice (HDAC6 in AgRP neurons; ACY775 10 mg/kg i.p., fasted): almost complete resistance to ACY755-induced suppression of food intake
- anti-obesity effects in HDAC6^Agrp-Δ vs HDAC6^WT DIO mice (HDAC6 in AgRP neurons; chronic treatment): Significantly attenuated effects of ACY775 on all the parameters

SMILES: O=C(CCCCCCNC(=O)c1cnc(N(c2ccccc2)c2ccccc2)nc1)NO [Ricolinostat]
- penetrance into the hypothalamus [1]: neither of which have high penetrance into the hypothalamus
